Test results: ChEMBL document CHEMBL1141589, “Synthesis and biological evaluation of NO-donor-tacrine hybrids as hepatoprotective anti-Alzheimer drug candidates” (J Med Chem, 2008)

What was measured:
Cholinesterase = Cholinesterase (Homo sapiens, UniProt P06276)
Description: Inhibition of BuChE by Ellman's assay

Acetylcholinesterase = Acetylcholinesterase (Homo sapiens, UniProt P22303); experiment: Inhibition of AChE by Ellman's assay
Artery = experiment: tissue or blood; details: Sus scrofa
Description: Vasorelaxation activity in PGF2-alpha-precontracted pig pulmonary artery

Chain of Cholinesterase (P06276 whole entry): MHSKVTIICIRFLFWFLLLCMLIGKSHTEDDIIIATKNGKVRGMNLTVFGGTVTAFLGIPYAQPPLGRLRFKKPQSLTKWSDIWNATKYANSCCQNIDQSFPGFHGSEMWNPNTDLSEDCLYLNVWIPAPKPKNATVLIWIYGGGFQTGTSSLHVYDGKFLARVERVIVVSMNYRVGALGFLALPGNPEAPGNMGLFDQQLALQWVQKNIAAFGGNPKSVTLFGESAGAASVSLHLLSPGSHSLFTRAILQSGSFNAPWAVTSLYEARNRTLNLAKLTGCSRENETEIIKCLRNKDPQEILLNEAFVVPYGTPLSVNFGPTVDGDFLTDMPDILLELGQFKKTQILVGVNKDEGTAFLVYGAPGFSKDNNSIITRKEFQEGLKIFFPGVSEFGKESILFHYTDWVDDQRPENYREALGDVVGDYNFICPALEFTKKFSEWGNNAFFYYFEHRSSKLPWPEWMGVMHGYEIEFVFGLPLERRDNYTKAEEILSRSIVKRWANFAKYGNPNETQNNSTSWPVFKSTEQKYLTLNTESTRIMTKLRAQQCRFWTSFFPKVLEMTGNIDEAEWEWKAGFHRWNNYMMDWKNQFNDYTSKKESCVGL
Chain of Acetylcholinesterase (P22303 whole entry): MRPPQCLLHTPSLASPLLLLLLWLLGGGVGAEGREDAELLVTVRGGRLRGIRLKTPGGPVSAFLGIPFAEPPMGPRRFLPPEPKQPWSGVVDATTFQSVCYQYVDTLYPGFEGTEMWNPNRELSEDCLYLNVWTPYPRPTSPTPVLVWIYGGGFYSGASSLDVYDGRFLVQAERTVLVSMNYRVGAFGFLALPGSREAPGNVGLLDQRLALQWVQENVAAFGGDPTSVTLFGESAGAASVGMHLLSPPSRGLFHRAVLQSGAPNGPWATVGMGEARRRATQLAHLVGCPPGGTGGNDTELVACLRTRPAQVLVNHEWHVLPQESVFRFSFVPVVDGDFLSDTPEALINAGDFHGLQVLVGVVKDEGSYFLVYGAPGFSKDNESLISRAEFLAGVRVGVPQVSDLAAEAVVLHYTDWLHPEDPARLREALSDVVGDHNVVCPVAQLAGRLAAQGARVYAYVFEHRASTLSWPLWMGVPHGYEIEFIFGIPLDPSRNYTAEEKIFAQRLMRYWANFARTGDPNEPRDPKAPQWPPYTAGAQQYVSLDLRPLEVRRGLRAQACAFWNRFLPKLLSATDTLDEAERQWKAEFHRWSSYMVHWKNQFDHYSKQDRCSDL

| Structure (SMILES) | IC50 (Cholinesterase) | IC50 (Acetylcholinesterase) | EC50 (Artery) |
| --- | --- | --- | --- |
| O=C(CO[N+](=O)[O-])NCCCCNc1c2c(nc3ccccc13)CCCC2 | 12.1 nM | 22.6 nM |  |
| CC(C)(C)C(=O)NCCCCNc1c2c(nc3ccccc13)CCCC2 | 36.5 nM | 21.6 nM |  |
| O=C(CO[N+](=O)[O-])NCCCNc1c2c(nc3ccccc13)CCCC2 | 13.5 nM | 28.2 nM | 3680 nM |
| CC(C)(CO[N+](=O)[O-])C(=O)NCCCCNc1c2c(nc3ccccc13)CCCC2 | 7.3 nM | 226 nM | 10500 nM |
| O=C(CO/N=[N+](\[O-])N1CCCC1)NCCCCNc1c2c(nc3ccccc13)CCCC2 | 41 nM | 50.7 nM |  |
| O=[N+]([O-])OCCCCCCNCCCNc1c2c(nc3ccccc13)CCCC2 | 21.7 nM | 6.3 nM |  |
| O=[N+]([O-])OCCNCCCCNc1c2c(nc3ccccc13)CCCC2 | 13.8 nM | 11.1 nM |  |
| O=C(CO/N=[N+](\[O-])N1CCCC1)NCCCNc1c2c(nc3ccccc13)CCCC2 | 15.3 nM | 35.5 nM | 22500 nM |
| O=[N+]([O-])O[C@H]1CO[C@H]2[C@@H]1OC[C@H]2O[N+](=O)[O-] [ISOSORBIDE DINITRATE] |  |  | 420 nM |
| O=[N+]([O-])OCCNCCCNc1c2c(nc3ccccc13)CCCC2 | 5.2 nM | 10 nM |  |
| O=C(CCO[N+](=O)[O-])NCCCCNc1c2c(nc3ccccc13)CCCC2 | 15.1 nM | 45.7 nM |  |
| O=[N+]([O-])OCCCNCCCCNc1c2c(nc3ccccc13)CCCC2 | 9.9 nM | 5.6 nM | 8800 nM |
| O=C(CCO[N+](=O)[O-])NCCCNc1c2c(nc3ccccc13)CCCC2 | 28 nM | 93 nM |  |
| O=[N+]([O-])OCCCNCCCNc1c2c(nc3ccccc13)CCCC2 | 5.5 nM | 6.4 nM |  |
| O=[N+]([O-])OCCCCCCNCCCCNc1c2c(nc3ccccc13)CCCC2 | 10.8 nM | 18.1 nM |  |
| CC(C)(CO[N+](=O)[O-])C(=O)NCCCNc1c2c(nc3ccccc13)CCCC2 | 5.5 nM | 69.5 nM |  |
